US10155259B2 (Merck Sharp & Dohme B.V., priority 2011, dated 2018)

Target: T1, human FSH receptor (Homo sapiens, UniProt P23945)
T1 construct: expressed in transfected cells; host or cells: CHO cells, stably transfected; cotransfected with CRE-luciferase reporter
T1 sequence (P23945 18-695): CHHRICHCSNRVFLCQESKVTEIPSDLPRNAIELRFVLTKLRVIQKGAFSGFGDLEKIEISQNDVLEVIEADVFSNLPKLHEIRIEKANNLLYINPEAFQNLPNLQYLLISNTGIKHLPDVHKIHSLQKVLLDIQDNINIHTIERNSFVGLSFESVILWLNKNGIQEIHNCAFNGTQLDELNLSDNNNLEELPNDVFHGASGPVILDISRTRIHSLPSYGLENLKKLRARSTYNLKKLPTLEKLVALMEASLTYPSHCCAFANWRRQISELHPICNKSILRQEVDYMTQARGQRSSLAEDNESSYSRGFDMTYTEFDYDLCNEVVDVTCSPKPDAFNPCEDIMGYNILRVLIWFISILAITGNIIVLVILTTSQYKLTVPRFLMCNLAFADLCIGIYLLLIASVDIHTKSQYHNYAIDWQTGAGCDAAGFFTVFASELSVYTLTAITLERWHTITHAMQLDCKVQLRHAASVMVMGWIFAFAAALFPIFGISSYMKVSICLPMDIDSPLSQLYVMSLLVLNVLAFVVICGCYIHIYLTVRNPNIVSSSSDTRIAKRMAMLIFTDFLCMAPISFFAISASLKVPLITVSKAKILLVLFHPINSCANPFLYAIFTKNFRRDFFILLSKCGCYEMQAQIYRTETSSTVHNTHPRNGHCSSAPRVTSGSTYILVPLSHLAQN
Assay: Antagonistic activity of compounds at the human FSH receptor expressed in CHO cells (CRE-luciferase reporter)
Format: cell-based
Settings: CHO cells stably transfected with human FSH receptor and CRE/luciferase reporter; together with 49 μM recFSH; 4 hours incubation; 1% DMSO; read-out: IC50 (concentration of test compound causing half-maximal inhibition of the maximally attainable inhibition of the luciferase stimulation)
How it was run: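 Stably transfected CHO cells with a CRE-driven firefly luciferase reporter were co-incubated 4 h at 37 °C with compound (0.316 nM–10.0 μM, duplicate) plus […] recFSH (80% maximal stimulation), 1% DMSO final. Luminescence read after lysis; IC50 and efficacy from inhibition of FSH-induced luciferase signal.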

Compound	IC50
COc1cc2c(cc1OC)-c1nc(C(=O)N[C@@H](CO)Cc3c[nH]c4ccccc34)c(-c3ccccc3OC)n1CC2 [Example 68, N—((R)-1-hydroxy-3-(1H-indol-3-yl)propan-2-yl)-8,9-dimethoxy-3-(2-methoxyphenyl)-5,6-dihydroimidazo[2,1-a]isoquinoline-2-carboxamide]	100 to 1000 nM
COc1ccccc1-c1c(C(=O)N[C@@H](CO)Cc2c[nH]c3ccccc23)nc2n1CCc1cc(OC)c(OC)nc1-2 [Example 70, N—((R)-1-hydroxy-3-(1H-indol-3-yl)propan-2-yl)-8,9-dimethoxy-3-(2-methoxyphenyl)-5,6-dihydroimidazo[1,2-h][1,7]naphthyridine-2-carboxamide]	< 100 nM
